Assay results from patent US20250207131A1, “MODIFIED RNA AGENTS WITH REDUCED OFF-TARGET EFFECT” (Alnylam Pharmaceuticals, Inc., priority 2018, published 2025).
pIC50: −log10 of the molar value.

What was measured:
[1] = Temperature-dependent UV spectroscopy, Tm of modified siRNA duplexes; type: physicochemical; details: 1 μM duplex, 0.25x PBS
Experimental: Temperature-dependent UV Spectroscopy: The melting studies were performed at a duplex concentration of 1 μM (consisting of the modified antisense […]) in 1 cm path length quartz cells on a Cary 300 spectrophotometer equipped with a thermoprogrammer. Each cuvette contained 800 μL of sample solution covered by 200 μL of light mineral oil. Melting curves were monitored at 260 nm with a heating rate of 1° C./min from 15-90° C. Melting temperatures (Tm) were calculated from the first derivatives of the smoothed heating curves and the reported values are the result of at least two independent measurements.

[2] = system: luciferase reporter plasmids (psiCHECK2, Renilla luciferase fused to target sequence); experiment: Off-target Dual-Glo luciferase reporter assay in COS-7 cells; type: cell-based
Experimental: Dual-Glo® Luciferase assay: Cos7 cells (ATCC, Manassas, VA) were grown to near confluence at 37° C. in an atmosphere of 5% CO2 in DMEM (ATCC) supplemented with 10% FBS, before being released from the plate by trypsinization. siRNA and psiCHCECK2 plasmid transfection was carried out by adding 5 μL of siRNA duplexes and 5 μL of psiCHECK2 plasmid per well along with 5 μL of Opti-MEM plus 0.1 μL of Lipofectamine 2000 per well (Invitrogen, Carlsbad CA. cat #13778-150) and then incubated at room temperature for 15 minutes. The mixture was then added to the cells which were re-suspended in 35 ul of fresh complete media. The transfected cells were incubated at 37° C. in an atmosphere of 5% CO2.
48 hours after the siRNAs and psiCHECK2 plasmid were transfected; Firefly (transfection control) and Renilla (fused to target sequence) luciferase were measured. First, media was removed from cells. Then Firefly luciferase activity was measured by adding 20 μL of Dual-Glo® Luciferase Reagent equal to the culture medium volume to each well and mix. The mixture was incubated at room temperature for 30 minutes before luminescence (500 nm) was measured on a Spectramax (Molecular Devices) to detect the Firefly luciferase signal. Renilla luciferase activity was measured by adding 20 μL of room temperature of Dual-Glo® Stop & Glo® Reagent was added to each well and the plates were incubated for 10-15 minutes before luminescence was again measured to determine the Renilla luciferase signal. The Dual-Glo® Stop & Glo® Reagent, quenches the firefly luciferase signal and sustained luminescence for the Renilla luciferase reaction. siRNA activity was determined by normalizing the Renilla signal to the Firefly (control) signal within each well. The magnitude of siRNA activity was then assessed relative to cells that were transfected with the same vector but were not treated with siRNA or were treated with a non-targeting siRNA. All transfections were done at n=2 or greater.

TTR = experiment: In vitro on-target activity, primary mouse hepatocytes, transfection, RT-qPCR (TTR siRNAs); type: cell-based; details: for On-target TX: 10 nM, log2 transformed, relative to the parent
Experimental: Cell culture and transfections: Primary Mouse Hepatocytes (Thermo Fisher Scientific/Gibco) were transfected by adding 4.9 μL of Opti-MEM plus 0.1 μL of Lipofectamine RNAiMax per well (Invitrogen, cat #13778-150) to 5 μL of siRNA duplexes per well into a 384-well plate and incubated at room temperature for 15 minutes. 40 μL of Dulbecco's Modified Eagle Medium (Hep3b) or William's Medium (PMH) containing ˜5 ×10^3 cells were then added to the siRNA mixture. Cells were incubated for 24 hours at 37° C. and then processed for RNA purification. Experiments were performed at 10 nM and 0.1 nM doses of siRNA.
Total RNA isolation using DYNABEADS mRNA Isolation Kit: RNA was isolated using an automated protocol on a BioTek-EL406 platform using DYNABEADs (Invitrogen, cat #61012). Briefly, 70 μL of Lysis/Binding Buffer and 10 μL of lysis buffer containing 3 μL of magnetic beads were added to each well. Plates were incubated on an electromagnetic shaker for 10 minutes at room temperature and then magnetic beads were captured and the supernatant was removed. Bead-bound RNA was then washed 2 times with 150 μL Wash Buffer A and once with Wash Buffer B. Beads were then washed with 150 μL Elution Buffer, re-captured and supernatant removed.
cDNA synthesis using ABI High capacity cDNA reverse transcription kit (Applied Biosystems, cat #4368813): 12 μL of a master mix containing 1.2 μL 10× Buffer, 0.48 μL 25× dNTPs, 1.2 μL 10× Random primers, 0.6 μL Reverse Transcriptase, 0.6 μL RNase inhibitor and 7.92 μL of H2O per reaction was added to RNA isolated above. Plates were sealed, mixed, and incubated on an electromagnetic shaker for 10 minutes at room temperature, followed by 2 h 37° C.
Real time PCR: 2 μL of cDNA were added to a master mix containing 2 μL water, 0.5 μL of either an appropriate GAPDH TaqMan VIC Probe or the target probe and 5 μL Lightcycler 480 probe master mix (Roche, cat #04887301001) per well in a 384 well plate (Roche, cat #04887301001). Real time PCR was done in a LightCycler480 Real Time PCR system (Roche). Each duplex was tested in quadruplicate and data were normalized to cells transfected with a non-targeting control siRNA. To calculate relative fold change, real time data were analyzed using the ΔΔCt method and normalized to assays performed with cells transfected with a non-targeting control siRNA.
RT qPCR for Ttr mRNA quantification:_Primary mouse hepatocytes (PMH) were cultured in Williams E Medium with 10% fetal bovine serum. Transfection of cells using RNAiMAX reagent was done as per the manufacturer's recommended protocol. Thus, cells were thawed immediately prior to transfection and then plated onto 384-well plates with a seed density of ˜5000 cells/well. Pre-incubated lipid/siRNA complex (0.1 μL RNAiMax, siRNA, in 5 μL Opti-MEM for 15 min) was added to a 384-well collagen-coated plate (BioCoat; Corning) and cells were incubated for 20 h at 37° C. in an atmosphere of 5% CO2. Eight 6-fold serial dilutions ranging from 10 to 0.036 nM were used to perform dose response experiments. Media was removed before washing and lysing the cells. Using Dynabeads mRNA isolation kit according to manufacturer's protocol, RNA was extracted and subsequently reverse-transcribed with the ABI high capacity cDNA reverse transcription kit. Quantification was done by real-time PCR, whereby the cDNA (2 μL) was added to a master mix that contained 0.5 μL mouse Gapdh TaqMan Probe, 0.5 μL Ttr TaqMan probes, and 5 μL Lightcycler 480 probe master mix per well in a 384-well 50 plate. Real-time PCR was accomplished in an ABI 7900HT RT-PCR system using the ΔΔCt (RQ) assay. Each duplex and concentration was tested in four biological replicates. To calculate relative fold change, real time data were analyzed using the ΔΔCt method and normalized to assays performed with cells transfected with 10 nM nonspecific siRNA. IC50 values were calculated using a 4-parameter fit model using XLFit.

[3] = antisense Position 5, Seq 3 (TTR)
[4] = antisense Position 7, Seq 3 (TTR)
[5] = antisense Position 7, Seq 4 (TTR)
[6] = TTR-3, antisense strand modified at position 5, luciferase reporter, COS-7 cells
[7] = TTR-3, antisense strand modified at position 7, luciferase reporter, COS-7 cells
[8] = TTR-4, modification at antisense position 7, luciferase reporter plasmids co-transfected with siRNAs into COS-7 cells
[9] = TTR-3, antisense strand modified at position 7, primary mouse hepatocytes
[10] = TTR-4, modification at antisense position 7, primary mouse hepatocytes
[11] = TTR-3, antisense strand modified at position 5, primary mouse hepatocytes

| Substance | Thermal melting temperature (Tm) [1, 3] [°C] | Thermal melting temperature (Tm) [1, 4] [°C] | Thermal melting temperature (Tm) [1, 5] [°C] | pIC50 [2, 6] | pIC50 [2, 7] | pIC50 [2, 8] | pIC50 (TTR; [9]) | pIC50 (TTR; [10]) | On-target TX (TTR; [3]) | On-target TX (TTR; [4]) | On-target TX (TTR; [5]) | pIC50 (TTR; [11]) |
| --- | --- | --- | --- | --- | --- | --- | --- | --- | --- | --- | --- | --- |
| 2′-(R)-Me-UNA [Mod 7 (R)] | 84.0 | 80.0 | 82.1 | < 7.30 | < 7.30 | 8.79 | 10.73 | 10.56 | 0.50 | 0.15 | −0.99 |  |
| 2′-(S)-Me-UNA [Mod 7 (S)] | 84.3 | 80.0 | 83.0 | < 7.30 | < 7.30 | 8.87 | 10.63 | 10.31 | 0.43 | 0.72 | −0.79 | 11.60 |
| 3′-(R)-Me-UNA [Mod 6 (R)] | 84.1 | 81.2 | 82.0 | < 7.30 | < 7.30 | 8.54 | 10.46 | 10.45 | −0.28 | 0.67 | −0.98 | 11.80 |
| 3′-(S)-Me-UNA [Mod 6 (S)] | 84.0 | 81.1 | 82.0 | < 7.30 | < 7.30 | 8.44 | 10.49 | 10.62 | 0.18 | 0.06 | −0.31 | 11.50 |
| 5′-(R)-Me-UNA [Mod 5 (R)] | 84.2 | 80.3 | 82.0 | < 7.30 | < 7.30 | 8.09 | 10.86 | 10.05 | 0.45 | 0.50 | −1.26 | 11.83 |
| 5′-(S)-Me-UNA [Mod 5 (S)] | 84.2 | 80.3 | 82.0 | < 7.30 | < 7.30 | 8.06 | 10.82 | 10.38 | −0.03 | −0.04 | −0.97 | 11.96 |
